The values below come from ChEMBL document CHEMBL1201862, “PubChem BioAssay data set” (2004).

Activity calls are given as the source filed them.

The nature of assay [1]: mitochondrial function rescue without frataxin homolog – Friedreich's ataxia, plus single-dose screen, dose response (AID 1465).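 Further: yeast depleted of Yfh1p frataxin homolog grown on glycerol needing respiration; WST-1 tetrazolium dye reduction as measure of cellular dehydrogenase metabolic activity.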 The class given is functional.
Assay [2] has as its target 72 kDa type IV collagenase (Homo sapiens, UniProt P08253). In words: Dose Response validation of uHTS RPN11 inhibitor hits using a MMP-2 Fluorescence assay. The assay is classed as functional.
Assay [3] addresses 26S proteasome non-ATPase regulatory subunit 14 (Homo sapiens, UniProt O00487). Put plainly: inhibition of proteasome subunit RPN11 – biochemical, fluorescence polarization, uHTS hits, confirmation (AID 602368). The assay is classed as functional.
For another assay, the target named is Prothrombin (Bos taurus, UniProt P00735). In words: thrombin protease inhibitors – biochemical, fluorescence polarization, uHTS hits, dose response (AID 602369). The assay is classed as functional.
For assay [4], the target named is T1, Fatty acid synthase (Homo sapiens, UniProt P49327). Put plainly: inhibition of human FAS-TE enzyme activity – biochemical, endpoint fluorescence intensity, uHTS hits, dose response (AID 624327).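 Further: fluorescence from hydrolysis of an O-methyl fluorescein acyl ester substrate by the enzyme.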 The class given is functional.
T1 sequence (P49327 whole entry): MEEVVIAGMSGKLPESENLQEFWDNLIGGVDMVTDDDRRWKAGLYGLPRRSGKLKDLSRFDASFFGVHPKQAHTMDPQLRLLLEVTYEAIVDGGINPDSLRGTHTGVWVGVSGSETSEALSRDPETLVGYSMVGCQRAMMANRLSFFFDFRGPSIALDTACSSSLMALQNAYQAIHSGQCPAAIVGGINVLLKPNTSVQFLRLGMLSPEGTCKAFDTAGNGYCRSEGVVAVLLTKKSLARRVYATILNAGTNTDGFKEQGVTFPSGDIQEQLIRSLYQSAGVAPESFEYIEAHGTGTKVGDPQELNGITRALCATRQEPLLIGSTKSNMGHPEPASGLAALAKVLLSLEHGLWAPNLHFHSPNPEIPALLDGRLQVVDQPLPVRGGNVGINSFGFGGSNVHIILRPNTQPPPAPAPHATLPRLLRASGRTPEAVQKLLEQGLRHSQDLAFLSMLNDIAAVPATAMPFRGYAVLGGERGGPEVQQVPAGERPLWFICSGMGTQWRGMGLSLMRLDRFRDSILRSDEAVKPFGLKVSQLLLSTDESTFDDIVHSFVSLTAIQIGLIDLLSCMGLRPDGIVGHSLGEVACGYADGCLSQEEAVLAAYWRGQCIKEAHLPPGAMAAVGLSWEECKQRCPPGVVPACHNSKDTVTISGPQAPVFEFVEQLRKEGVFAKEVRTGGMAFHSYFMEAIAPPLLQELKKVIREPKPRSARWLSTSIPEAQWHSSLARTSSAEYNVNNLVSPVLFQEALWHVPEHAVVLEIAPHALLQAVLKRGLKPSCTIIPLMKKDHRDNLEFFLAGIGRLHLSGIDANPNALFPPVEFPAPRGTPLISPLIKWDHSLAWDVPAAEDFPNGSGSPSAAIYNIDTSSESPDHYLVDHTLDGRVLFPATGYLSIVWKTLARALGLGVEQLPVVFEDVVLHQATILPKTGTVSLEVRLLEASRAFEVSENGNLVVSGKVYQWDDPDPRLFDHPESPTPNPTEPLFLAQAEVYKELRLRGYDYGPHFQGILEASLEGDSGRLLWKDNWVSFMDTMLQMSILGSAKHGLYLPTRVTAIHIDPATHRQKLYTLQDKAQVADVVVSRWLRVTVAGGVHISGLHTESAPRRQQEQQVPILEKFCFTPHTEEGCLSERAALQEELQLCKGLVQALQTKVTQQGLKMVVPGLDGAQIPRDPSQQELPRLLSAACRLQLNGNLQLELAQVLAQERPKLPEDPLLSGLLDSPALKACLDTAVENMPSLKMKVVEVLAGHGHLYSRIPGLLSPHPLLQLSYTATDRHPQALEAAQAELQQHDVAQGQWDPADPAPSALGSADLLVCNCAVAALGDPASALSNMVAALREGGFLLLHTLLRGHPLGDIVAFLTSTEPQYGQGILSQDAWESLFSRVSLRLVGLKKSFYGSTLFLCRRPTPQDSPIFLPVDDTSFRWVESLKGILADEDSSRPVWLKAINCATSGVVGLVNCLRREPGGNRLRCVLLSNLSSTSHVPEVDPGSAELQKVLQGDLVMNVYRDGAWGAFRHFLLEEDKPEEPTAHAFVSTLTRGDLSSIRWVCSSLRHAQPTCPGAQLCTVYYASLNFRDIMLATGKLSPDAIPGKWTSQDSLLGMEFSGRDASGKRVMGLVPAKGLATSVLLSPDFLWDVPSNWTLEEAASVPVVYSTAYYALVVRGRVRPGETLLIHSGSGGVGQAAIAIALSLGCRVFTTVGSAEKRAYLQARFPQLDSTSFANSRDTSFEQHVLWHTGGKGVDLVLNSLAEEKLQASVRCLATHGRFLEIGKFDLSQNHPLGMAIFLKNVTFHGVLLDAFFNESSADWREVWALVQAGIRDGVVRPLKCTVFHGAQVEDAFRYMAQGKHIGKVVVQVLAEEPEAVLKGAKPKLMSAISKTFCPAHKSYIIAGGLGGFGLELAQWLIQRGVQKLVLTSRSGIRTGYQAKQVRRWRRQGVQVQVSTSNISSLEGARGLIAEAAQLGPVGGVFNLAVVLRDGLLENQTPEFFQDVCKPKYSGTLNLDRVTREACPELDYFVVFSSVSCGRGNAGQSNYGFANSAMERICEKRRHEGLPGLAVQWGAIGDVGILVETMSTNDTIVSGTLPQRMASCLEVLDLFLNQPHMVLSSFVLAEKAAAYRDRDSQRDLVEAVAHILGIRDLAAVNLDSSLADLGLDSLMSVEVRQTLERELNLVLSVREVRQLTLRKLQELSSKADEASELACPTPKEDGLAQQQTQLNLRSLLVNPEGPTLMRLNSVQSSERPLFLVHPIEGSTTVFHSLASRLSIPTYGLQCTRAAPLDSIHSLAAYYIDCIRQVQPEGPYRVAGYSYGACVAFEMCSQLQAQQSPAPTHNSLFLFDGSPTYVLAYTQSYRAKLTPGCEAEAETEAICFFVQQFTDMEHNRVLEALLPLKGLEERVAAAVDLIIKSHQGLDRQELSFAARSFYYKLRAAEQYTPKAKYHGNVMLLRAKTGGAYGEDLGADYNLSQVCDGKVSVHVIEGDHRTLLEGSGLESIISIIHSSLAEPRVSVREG
The target in another assay is Genome polyprotein (dengue virus type 2, UniProt P29990). Put plainly: flavivirus cap methylation enzyme inhibition – biochemical, confirmation dose response, primary screen (AID 588689). The class given is functional.
Assay [5] concerns the target T1, Fatty acid synthase. Put plainly: inhibition of human FAS-TE enzyme activity – biochemical, kinetic fluorescence intensity, dose response (AID 624326).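 Further: rate of fluorescence rise from hydrolysis of a fluorogenic O-methyl fluorescein ester substrate.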 The class given is functional.
A further assay deals with Bcl-2-like protein 1 (Homo sapiens, UniProt Q07817). Put plainly: blockers of BCLXL peptide binding – biochemical, fluorescence polarization, 1536-well, selectivity assay for MCL1 inhibitor project, dose response (AID 2218).
Chain of Bcl-2-like protein 1 (Q07817 whole entry): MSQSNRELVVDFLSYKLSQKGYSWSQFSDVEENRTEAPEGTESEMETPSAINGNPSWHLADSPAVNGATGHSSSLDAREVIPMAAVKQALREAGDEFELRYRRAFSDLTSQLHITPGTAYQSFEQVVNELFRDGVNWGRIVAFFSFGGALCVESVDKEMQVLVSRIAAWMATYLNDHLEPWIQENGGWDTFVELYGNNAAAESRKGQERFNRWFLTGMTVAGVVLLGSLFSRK
In assay [6] the target is T2, Induced myeloid leukemia cell differentiation protein Mcl-1 (Homo sapiens, UniProt Q07820). The assay is classed as functional.
T2 sequence (Q07820 whole entry): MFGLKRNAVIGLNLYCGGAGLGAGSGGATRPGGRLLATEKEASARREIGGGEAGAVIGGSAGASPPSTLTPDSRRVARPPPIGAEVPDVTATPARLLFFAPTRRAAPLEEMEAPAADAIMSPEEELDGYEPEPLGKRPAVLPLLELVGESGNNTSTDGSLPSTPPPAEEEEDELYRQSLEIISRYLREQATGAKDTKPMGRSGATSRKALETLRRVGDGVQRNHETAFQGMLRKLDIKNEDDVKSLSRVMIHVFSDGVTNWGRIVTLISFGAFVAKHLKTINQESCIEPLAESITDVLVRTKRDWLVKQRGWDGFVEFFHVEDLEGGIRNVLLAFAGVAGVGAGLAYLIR
For assay [7], the target named is T2, Induced myeloid leukemia cell differentiation protein Mcl-1. Put plainly: blockers of MCL1 binding to BIM peptide – biochemical, fluorescence polarization, BIM-BH3 peptide, 1536-well, dose response (AID 2217).
For another assay, the target named is Wee1-like protein kinase (Homo sapiens, UniProt P30291). In words: HeLa cell cycle G2/M accumulation – FACS, mechanism study for Wee1 degradation inhibitor project, late-stage follow-up, panel member Wee1 Degradation (AID 2088).
Chain of Wee1-like protein kinase (P30291 whole entry): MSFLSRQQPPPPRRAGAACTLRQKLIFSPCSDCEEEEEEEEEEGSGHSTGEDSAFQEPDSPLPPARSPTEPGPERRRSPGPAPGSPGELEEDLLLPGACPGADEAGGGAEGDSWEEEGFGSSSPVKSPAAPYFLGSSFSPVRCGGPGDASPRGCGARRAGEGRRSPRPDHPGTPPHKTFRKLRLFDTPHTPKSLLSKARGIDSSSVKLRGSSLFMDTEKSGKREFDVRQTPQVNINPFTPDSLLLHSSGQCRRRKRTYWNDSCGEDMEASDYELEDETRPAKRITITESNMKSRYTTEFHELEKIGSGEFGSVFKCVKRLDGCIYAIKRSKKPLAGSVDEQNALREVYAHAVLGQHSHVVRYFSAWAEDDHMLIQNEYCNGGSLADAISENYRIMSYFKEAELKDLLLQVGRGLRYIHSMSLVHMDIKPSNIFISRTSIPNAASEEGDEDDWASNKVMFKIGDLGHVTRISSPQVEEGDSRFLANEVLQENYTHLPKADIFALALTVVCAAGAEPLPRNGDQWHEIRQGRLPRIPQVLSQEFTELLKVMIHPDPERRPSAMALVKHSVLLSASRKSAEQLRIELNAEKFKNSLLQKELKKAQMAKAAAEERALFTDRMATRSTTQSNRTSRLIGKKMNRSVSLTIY
Assay [8] addresses G2/mitotic-specific cyclin-B1 (Homo sapiens, UniProt P14635). In words: HeLa cell cycle G2/M accumulation – FACS, mechanism study for Wee1 degradation inhibitor project, late-stage follow-up, panel member Cyclin B Degradation (AID 2088).
Assay [9] addresses 5-hydroxytryptamine receptor 1E (Homo sapiens, UniProt P28566). Put plainly: Counterscreen assay for S1P3 antagonists: Dose response cell-based high throughput screening assay to identify antagonists of the 5-Hydroxytryptamine Receptor Subtype 1E (5HT1E). [Related pubchem assays: 1429, 485 ]. The class given is functional.
Assay [10] has as its target Sphingosine 1-phosphate receptor 3 (Homo sapiens, UniProt Q99500). In words: Dose response cell-based high throughput screening assay for antagonists of the Sphingosine 1-Phosphate Receptor 3 (S1P3). [Related pubchem assays: 1429, 485 ]. The class given is functional.
Assay [11] is described as follows: antiviral protection against BTV-induced cell death – arbovirus, BSR cells, confirmation (AID 1250).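 Further: protection from viral cytopathic effect measured as cell viability by ATP luminescence.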 The assay is classed as functional.
Assay [12] concerns the target T3, Mannose-6-phosphate isomerase (Homo sapiens, UniProt P34949).
T3 sequence (P34949 whole entry): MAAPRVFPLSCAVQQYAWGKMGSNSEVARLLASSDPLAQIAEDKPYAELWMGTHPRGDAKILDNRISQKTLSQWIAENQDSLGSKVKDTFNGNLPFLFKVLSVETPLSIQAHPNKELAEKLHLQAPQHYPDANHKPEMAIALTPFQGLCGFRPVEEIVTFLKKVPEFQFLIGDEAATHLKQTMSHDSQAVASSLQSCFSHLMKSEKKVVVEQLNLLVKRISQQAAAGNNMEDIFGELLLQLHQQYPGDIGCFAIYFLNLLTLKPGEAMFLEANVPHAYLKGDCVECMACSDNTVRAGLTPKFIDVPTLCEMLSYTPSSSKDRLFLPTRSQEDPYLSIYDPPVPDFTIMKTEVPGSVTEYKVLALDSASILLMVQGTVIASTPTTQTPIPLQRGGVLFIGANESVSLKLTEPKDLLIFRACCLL
In words: MPI inhibition at elevated mannose 6-phosphate – biochemical, fluorescence intensity, high mannose 6-phosphate, primary screen (AID 1220).

The target of assay [13] is T3, Mannose-6-phosphate isomerase. Put plainly: MPI enzyme activity inhibition – biochemical, fluorescence intensity, coupled assay, primary screen (AID 1209).
The next assay concerns the target Cytochrome P450 3A4 (Homo sapiens, UniProt P08684). As to conditions: Potency.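 Further: confirmatory qHTS run detecting inhibitors and substrates of CYP3A4.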
Assay [14] has as its system Vero. In words: host cell viability loss, Vero E6 – synthesized analogs, cytotoxicity control for West Nile virus antiviral project, SAR follow-up (AID 2244). The assay is classed as functional. As to conditions: Chlorocebus sabaeus.
The test system of assay [15] is Vero. Put plainly: Vero cell viability after compound exposure – synthesized analogs, set II, cytotoxicity control for West Nile virus antiviral project, SAR follow-up (AID 2402). The assay is classed as functional. As to conditions: Chlorocebus sabaeus.
Assay [16] is described as follows: Luminescence Cell-Based Dose Confirmation HTS to Identify Inhibitors of Polyadenylation. The class given is functional.
Assay [17] concerns the target Transitional endoplasmic reticulum ATPase (Homo sapiens, UniProt P55072, C522A). In words: Luminescence counterscreen assay for p97 inhibitors: dose response biochemical high throughput screening assay to identify inhibitors of the C522A mutant p97 ATPase: synthesized compounds. [Related pubchem assays: 1481, 1517, 1551 ].
Assay [18] deals with Transitional endoplasmic reticulum ATPase (Homo sapiens, UniProt P55072). Put plainly: Luminescence dose response biochemical high throughput screening assay for inhibitors of the p97 ATPase: synthesized compounds. [Related pubchem assays: 1481, 1517 ].
Chain of Transitional endoplasmic reticulum ATPase (Homo sapiens, UniProt P55072) (P55072 whole entry): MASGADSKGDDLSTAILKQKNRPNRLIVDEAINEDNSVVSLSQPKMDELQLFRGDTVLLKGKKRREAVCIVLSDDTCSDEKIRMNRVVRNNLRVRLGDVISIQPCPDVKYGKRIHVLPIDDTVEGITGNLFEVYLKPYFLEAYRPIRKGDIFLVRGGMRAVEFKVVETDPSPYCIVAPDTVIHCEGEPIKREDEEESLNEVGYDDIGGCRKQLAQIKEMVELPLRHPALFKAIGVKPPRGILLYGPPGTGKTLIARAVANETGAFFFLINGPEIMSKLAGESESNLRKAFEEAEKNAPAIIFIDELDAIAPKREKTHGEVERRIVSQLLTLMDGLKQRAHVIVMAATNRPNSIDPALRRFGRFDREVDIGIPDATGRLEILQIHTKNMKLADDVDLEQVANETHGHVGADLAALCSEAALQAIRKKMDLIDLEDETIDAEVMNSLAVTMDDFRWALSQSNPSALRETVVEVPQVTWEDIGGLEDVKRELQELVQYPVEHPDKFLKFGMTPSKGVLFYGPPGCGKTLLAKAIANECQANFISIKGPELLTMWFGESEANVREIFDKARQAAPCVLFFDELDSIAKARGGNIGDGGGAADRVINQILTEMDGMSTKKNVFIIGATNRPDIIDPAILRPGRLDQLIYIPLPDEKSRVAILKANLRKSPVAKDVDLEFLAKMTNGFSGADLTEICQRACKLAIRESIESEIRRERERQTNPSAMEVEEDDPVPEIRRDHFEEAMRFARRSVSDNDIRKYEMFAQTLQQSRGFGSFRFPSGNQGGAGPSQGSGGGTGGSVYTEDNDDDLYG

Chain of G2/mitotic-specific cyclin-B1 (P14635 whole entry): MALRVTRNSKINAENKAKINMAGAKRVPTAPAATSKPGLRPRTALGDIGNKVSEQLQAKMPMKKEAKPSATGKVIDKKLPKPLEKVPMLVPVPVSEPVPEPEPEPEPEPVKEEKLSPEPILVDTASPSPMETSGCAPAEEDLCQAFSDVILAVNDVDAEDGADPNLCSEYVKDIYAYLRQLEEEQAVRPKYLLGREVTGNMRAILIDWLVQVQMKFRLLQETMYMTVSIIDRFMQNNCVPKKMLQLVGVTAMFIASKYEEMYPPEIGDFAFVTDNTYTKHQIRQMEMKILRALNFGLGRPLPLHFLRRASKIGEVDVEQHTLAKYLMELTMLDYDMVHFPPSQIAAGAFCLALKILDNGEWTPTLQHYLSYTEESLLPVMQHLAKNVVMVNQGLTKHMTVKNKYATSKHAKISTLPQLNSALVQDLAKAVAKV

In the case of `CC(=O)N1CCc2cc(NN=C3C(=O)CC(C)(C)CC3=O)ccc21`, the EC50 in assay [1] was > 100 µM (active). Further, the IC50 in assay [2] is > 100 µM (inactive); in assay [3], 35.5 µM (active); at Prothrombin, 31.5 µM (active).

In the case of `O=C(O)COc1ccccc1C(Nc1ccccn1)c1cc(Cl)c2cccnc2c1O` (centres undefined), the IC50 on Fatty acid synthase [4] was 18.5 µM (active); on Genome polyprotein it was 43.3 µM (active); at Fatty acid synthase [5] it was 14.3 µM (active); on Bcl-2-like protein 1, > 109 µM (not active); in assay [6] it was 9.35 µM (active); in assay [7] it was 1.74 µM (active).

Turning to `Cc1cccc(CC(=O)Nc2cc(C)nn2-c2nc(C)cc(=O)[nH]2)c1`, the EC50 (at Wee1-like protein kinase; in [8]) was > 49.7 µM (inactive) each time.

Turning to `CSc1ccccc1NC(=O)C1CC(c2ccccc2O)=NO1` (centres undefined), the IC50 in assay [9] and in assay [10] was > 50 µM (not active) each time.

For the compound `Cc1cc(/N=C/c2c(O)ccc3cc(Br)ccc23)no1`, the concentration for half-maximal inhibition (IC50) in assay [11] was 31.8 µM (active); in assay [12], > 50 µM (not active); in assay [13], > 50 µM (not active); in assay [6], > 54 µM (not active).

On to `C[C@@H]1CCC2[C@@H](C)[C@@H](O)O[C@@H]3O[C@@]4(C)CC[C@@H]1[C@@]23OO4` (some centres undefined), for which the concentration at half-maximal activity (AC50) at Cytochrome P450 3A4 is 12.6 µM (inconclusive).

Regarding `O=c1c2cc(Cl)cc(Cl)c2nc2n1CCC2`, the 50% cytotoxic concentration (CC50) in the assay on Vero [14] is > 40 µM (active); in the assay on Vero [15], > 100 µM (active).

For `CC(C)=CCOc1c2ccoc2cc2oc(=O)ccc12` [ISOIMPERATORIN], the EC50 in [16] is > 120 µM (not active).

For the compound `N#C/C=C/c1ccccc1Nc1ccc(S(N)(=O)=O)cc1`, the IC50 in assay [17] and in assay [18] was > 50 µM (not active) each time.
